Laboratory results taken from US10105357B2, “Indication of antibiotic drugs for preparation of cancer inhibition pharmaceutical composition” (LAUNX BIOMEDICAL CO., LTD., priority 2014, dated 2018).
Where a name gives a salt, the structure may show the parent alone. Read-outs that look alike come from different tables or passages of the source.

Key:
[1] = tested on: BxPC-3; test: Cell viability analysis, pancreatic cancer BxPC-3; format: cell-based, human; details: Homo sapiens, BXPC-3, 72 h, read-out: The results of antibiotic drug inhibiting cancer cell lines (cell viability analysis), BxPC-3
[2] = tested on: HeLa (Cervix Adenocarcinoma); test: Cell viability analysis, cervical cancer HeLa; format: cell-based, human; details: for viability at 10 µM: Homo sapiens, HeLa, 72 h
[3] = tested on: HI650 (Lung Adenocarcinoma); test: Cell viability analysis, lung cancer HI650; format: cell-based, human; details: for viability at 10 µM: Homo sapiens, NCI-H1650, 72 h
[4] = tested on: cancer cell lines; test: Cell viability analysis (WST-1) on cancer cell lines; format: cell-based, human; details: drug 10 μM, 72 hours, WST-1; Table 3
[5] = tested on: MCF7 (Mammary Gland, Adenocarcinoma); test: Cell viability analysis, breast cancer MCF7; format: cell-based, human; details: Homo sapiens, MCF7, 72 h
[6] = tested on: TSGH-8301 (Urinary Bladder Carcinoma); test: Cell viability analysis, bladder cancer TSGH-8301; format: cell-based, human; details: for viability at 10 µM: Homo sapiens, 72 h
[7] = tested on: U-2OS; test: Cell viability analysis, osteosarcoma U-2OS; format: cell-based, human; details: for viability at 10 µM: Homo sapiens, U2OS, 72 h, read-out: The results of antibiotic drug inhibiting cancer cell lines (cell viability analysis), U2OS
[8] = tested on: MKN-45 (Gastric Adenocarcinoma); test: Cell viability analysis, gastric cancer MKN-45; format: cell-based, human; details: for viability at 10 µM: Homo sapiens, MKN-45, 72 h
[9] = tested on: 786-O (Renal adenocarcinoma); test: Cell viability analysis, renal cancer 786-O; format: cell-based, human; details: for viability at 10 µM: Homo sapiens, 786-0, 72 h, read-out: The results of antibiotic drug inhibiting cancer cell lines (cell viability analysis), 786-O
[10] = tested on: HCT116 (p53+) (Colorectal Carcinoma)
[11] = tested on: HL-60 (Acute Promyelocytic Leukemia); test: Cell viability analysis, leukemia HL-60; format: cell-based, human; details: Homo sapiens, HL-60, 72 h, read-out: cell viability (survival rate), HL-60, drug 10 μM, 72 hours, WST-1, OD450 nm
[12] = tested on: BCC (basal cell carcinoma); test: Cell viability analysis, skin cancer BCC; format: cell-based, human; details: Homo sapiens, 72 h, read-out: The results of antibiotic drug inhibiting cancer cell lines (cell viability analysis), BCC
[13] = tested on: AsPC-1; test: Cell viability analysis, pancreatic cancer AsPC-1; format: cell-based, human; details: for viability at 10 µM: Homo sapiens, ASPC1, 72 h, read-out: The results of antibiotic drug inhibiting cancer cell lines (cell viability analysis), AsPC-1
[14] = tested on: A549 (Lung Adenocarcinoma); test: Cell viability analysis, lung cancer A549; format: cell-based, human; details: for viability at 10 µM: Homo sapiens, A549, 72 h
[15] = tested on: HepG2 (Hepatocellular Carcinoma); test: Cell viability analysis, hepatic cancer HepG2; format: cell-based, human; details: for viability at 10 µM: Homo sapiens, HepG2, 72 h
[16] = tested on: MDA-MB-231 (Mammary Gland, Adenocarcinoma); test: Cell viability analysis, breast cancer MDA-MB-231; format: cell-based, human; details: for viability at 10 µM: Homo sapiens, MDA-MB-231, 72 h, read-out: The results of antibiotic drug inhibiting cancer cell lines (cell viability analysis), MDA-MB231
[17] = tested on: A375 (Amelanotic Melanoma); test: Cell viability analysis, skin cancer A375; format: cell-based, human; details: for viability at 10 µM: Homo sapiens, A-375, 72 h
[18] = tested on: TOV-21G; test: Cell viability analysis, ovarian cancer TOV-21G; format: cell-based, human; details: Homo sapiens, TOV21G, 72 h, read-out: The results of antibiotic drug inhibiting cancer cell lines (cell viability analysis), TOV-21G
[19] = tested on: C-33A (Cervical carcinoma); test: Cell viability analysis, cervical cancer C-33A; format: cell-based, human; details: for viability at 10 µM: Homo sapiens, C-33-A, 72 h, read-out: The results of antibiotic drug inhibiting cancer cell lines (cell viability analysis), C-33A
[20] = tested on: Hep3B (hepatocellular carcinoma); test: Cell viability analysis, hepatic cancer Hep3B; format: cell-based, human; details: for viability at 10 µM: Homo sapiens, Hep3B, 72 h, read-out: The results of antibiotic drug inhibiting cancer cell lines (cell viability analysis), Hep3B
[21] = tested on: PC3 (p53−) (Prostate Adenocarcinoma); test: Cell viability analysis, prostate cancer PC3; format: cell-based, human; details: for viability at 10 µM: Homo sapiens, 72 h
[22] = tested on: AGS (Gastric Adenocarcinoma); test: Cell viability analysis, gastric cancer AGS; format: cell-based, human; details: for viability at 10 µM: Homo sapiens, 72 h
[23] = tested on: SAS (Tongue squamous cell carcinoma); test: Cell viability analysis, tongue cancer SAS; format: cell-based, human; details: for viability at 10 µM: Homo sapiens, 72 h, read-out: The results of antibiotic drug inhibiting cancer cell lines (cell viability analysis), SAS
[24] = tested on: LoVo (Colorectal Adenocarcinoma); test: Cell viability analysis, colon cancer LoVo; format: cell-based, human; details: for viability at 10 µM: Homo sapiens, LoVo, 72 h
[25] = tested on: NIH: OVCAR-3; test: Cell viability analysis, ovarian cancer NIH: OVCAR-3; format: cell-based, human; details: for viability at 10 µM: Homo sapiens, OVCAR-3, 72 h, read-out: The results of antibiotic drug inhibiting cancer cell lines (cell viability analysis), NIH-OVCAR-3
[26] = tested on: T24; test: Cell viability analysis, bladder cancer T24; format: cell-based, human; details: Homo sapiens, T-24, 72 h, read-out: The results of antibiotic drug inhibiting cancer cell lines (cell viability analysis), T24
[27] = read-out: The results of antibiotic drug inhibiting cancer cell lines (cell viability analysis), HeLa, repeated experiment
[28] = read-out: cell viability (survival rate), HeLa, drug 10 μM, 72 hours, WST-1, OD450 nm
[29] = read-out: The results of antibiotic drug inhibiting cancer cell lines (cell viability analysis), H1650, H1650, repeated experiment
[30] = read-out: cell viability (survival rate), H1650, drug 10 μM, 72 hours, WST-1, OD450 nm
[31] = read-out: The results of antibiotic drug inhibiting cancer cell lines (cell viability analysis), MCF-7, MCF-7, repeated experiment
[32] = read-out: cell viability (survival rate), MCF7, drug 10 μM, 72 hours, WST-1, OD450 nm
[33] = read-out: The results of antibiotic drug inhibiting cancer cell lines (cell viability analysis), TSGH-8301, TSGH-8301, repeated experiment
[34] = read-out: cell viability (survival rate), TSGH, drug 10 μM, 72 hours, WST-1, OD450 nm
[35] = read-out: The results of antibiotic drug inhibiting cancer cell lines (cell viability analysis), MKN-45, MKN-45, repeated experiment
[36] = read-out: cell viability (survival rate), MKN-45, drug 10 μM, 72 hours, WST-1, OD450 nm
[37] = read-out: The results of antibiotic drug inhibiting cancer cell lines (cell viability analysis), A549, A549, repeated experiment
[38] = read-out: cell viability (survival rate), A549, drug 10 μM, 72 hours, WST-1, OD450 nm
[39] = read-out: The results of antibiotic drug inhibiting cancer cell lines (cell viability analysis), HepG2, HepG2, repeated experiment
[40] = read-out: cell viability (survival rate), HepG2, drug 10 μM, 72 hours, WST-1, OD450 nm
[41] = read-out: The results of antibiotic drug inhibiting cancer cell lines (cell viability analysis), A375, A375, repeated experiment
[42] = read-out: cell viability (survival rate), A375, drug 10 μM, 72 hours, WST-1, OD450 nm
[43] = read-out: The results of antibiotic drug inhibiting cancer cell lines (cell viability analysis), PC-3, PC-3, repeated experiment
[44] = read-out: cell viability (survival rate), PC3, drug 10 μM, 72 hours, WST-1, OD450 nm
[45] = read-out: The results of antibiotic drug inhibiting cancer cell lines (cell viability analysis), AGS, repeated experiment
[46] = read-out: cell viability (survival rate), AGS, drug 10 μM, 72 hours, WST-1, OD450 nm
[47] = read-out: The results of antibiotic drug inhibiting cancer cell lines (cell viability analysis), LoVo, repeated experiment
[48] = read-out: cell viability (survival rate), LoVo, drug 10 μM, 72 hours, WST-1, OD450 nm

| SMILES | viability at 10 µM [1] | viability at 10 µM [2, 27] | viability at 10 µM [3, 29] | inhibition effect on different cancer cell lines [4] | viability at 10 µM [5, 31] | viability at 10 µM [6, 33] | viability at 10 µM [7] | viability at 10 µM [8, 35] | viability at 10 µM [9] | viability [10] | viability at 10 µM [12] | viability at 10 µM [13] | viability at 10 µM [14, 37] | viability at 10 µM [16] | viability at 10 µM [18] | viability at 10 µM [19] | viability at 10 µM [20] | viability at 10 µM [21, 43] | viability at 10 µM [22, 45] | viability at 10 µM [23] | other results |
| --- | --- | --- | --- | --- | --- | --- | --- | --- | --- | --- | --- | --- | --- | --- | --- | --- | --- | --- | --- | --- | --- |
| CCOc1ccc(NC(C)=O)cc1 [Phenacetin] | 73.2% | 110% | 90.1% | significant inhibition effect | 92.9% | 128% | 63.9% | 123% | 92% | 102% | 119% | 90.5% | 87.6% | 91.7% | 95.8% | 114% | 106% | 133% | 122% | 81.9% | viability at 10 µM [2, 28]: 57.2%; viability at 10 µM [3, 30]: 39.1%; viability at 10 µM [5, 32]: 62.7%; viability at 10 µM [6, 34]: 23.3%; viability at 10 µM [8, 36]: 75.1%; viability at 10 µM [11]: 95.3%; viability at 10 µM [14, 38]: 34.4%; viability at 10 µM [15, 39]: 121%; viability at 10 µM [15, 40]: 72.5%; viability at 10 µM [17, 41]: 106%; viability at 10 µM [17, 42]: 54.1%; viability at 10 µM [21, 44]: 40.4%; viability at 10 µM [22, 46]: 40.4%; viability at 10 µM [24, 47]: 87.7%; viability at 10 µM [24, 48]: 48.5%; viability at 10 µM [25]: 105% |
| CN(C)CCCN1c2ccccc2CCc2ccc(Cl)cc21 [Clomipramine hydrochloride (Anafranil), Clomipramine hydrochloride] | 78.3% | 113% | 103% | significant inhibition effect | 65.9% | 139% | 58.4% | 125% | 80.3% | 137% | 124% | 77.2% | 86.4% | 117% | 118% | 118% | 135% | 91.2% | 122% | 51.6% | viability at 10 µM [26]: 109%; viability at 10 µM [24, 47]: 65.7% |
| CC(=O)NC[C@H]1CN(c2ccc(N3CCOCC3)c(F)c2)C(=O)O1 [Linezolid (Zyvox), Linezolid] | 95.6% | 89.2% | 95.6% | significant inhibition effect | 73.1% | 99.7% | 99.8% | 137% | 98.6% | 107% | 67.2% | 92.6% | 82.1% | 96.2% | 78.2% | 132% | 99.9% | 115% | 104% | 84% | viability at 10 µM [2, 28]: 93.7%; viability at 10 µM [3, 30]: 51.3%; viability at 10 µM [5, 32]: 66.3%; viability at 10 µM [6, 34]: 58.2%; viability at 10 µM [8, 36]: 65.9%; viability at 10 µM [11]: 129%; viability at 10 µM [14, 38]: 40.2%; viability at 10 µM [15, 39]: 107%; viability at 10 µM [15, 40]: 91.3%; viability at 10 µM [17, 41]: 82.8%; viability at 10 µM [17, 42]: 57.6%; viability at 10 µM [21, 44]: 67%; viability at 10 µM [22, 46]: 70.8%; viability at 10 µM [24, 47]: 89.5%; viability at 10 µM [24, 48]: 91%; viability at 10 µM [25]: 110% |
| N#C[C@@H]1C[C@@H]2C[C@H]2N1C(=O)[C@@H](N)C12CC3CC(CC(O)(C3)C1)C2 [Saxagliptin (BMS-477118, Onglyza)] |  |  |  |  |  |  |  |  |  | 107% |  |  |  |  |  |  |  |  |  |  | The results of antibiotic drug inhibiting cancer cell lines (cell viability analysis), HeLa [2]: 114.7; The results of antibiotic drug inhibiting cancer cell lines (cell viability analysis), H1650 [3]: 101.5; The results of antibiotic drug inhibiting cancer cell lines (cell viability analysis), TSGH-8301 [6]: 119.6; The results of antibiotic drug inhibiting cancer cell lines (cell viability analysis), U2OS [7]: 62.9; The results of antibiotic drug inhibiting cancer cell lines (cell viability analysis), MKN-45 [8]: 117.7; The results of antibiotic drug inhibiting cancer cell lines (cell viability analysis), 786-O [9]: 98.33; The results of antibiotic drug inhibiting cancer cell lines (cell viability analysis), AsPC-1 [13]: 75.97; The results of antibiotic drug inhibiting cancer cell lines (cell viability analysis), A549 [14]: 98.68; The results of antibiotic drug inhibiting cancer cell lines (cell viability analysis), HepG2 [15]: 118; The results of antibiotic drug inhibiting cancer cell lines (cell viability analysis), MDA-MB231 [16]: 102; The results of antibiotic drug inhibiting cancer cell lines (cell viability analysis), A375 [17]: 111.4; The results of antibiotic drug inhibiting cancer cell lines (cell viability analysis), C-33A [19]: 104.4; The results of antibiotic drug inhibiting cancer cell lines (cell viability analysis), Hep3B [20]: 122.9; The results of antibiotic drug inhibiting cancer cell lines (cell viability analysis), PC-3 [21]: 112; The results of antibiotic drug inhibiting cancer cell lines (cell viability analysis), AGS [22]: 121.3; The results of antibiotic drug inhibiting cancer cell lines (cell viability analysis), SAS [23]: 62.71; The results of antibiotic drug inhibiting cancer cell lines (cell viability analysis), LoVo [24]: 82.99; The results of antibiotic drug inhibiting cancer cell lines (cell viability analysis), NIH-OVCAR-3 [25]: 114.2 |
